# Experimental data as given in patent US9708628B2, “Cationic lipid having improved intracellular kinetics” (NOF CORPORATION, priority 2011, dated 2017).
# What was measured:
# [1] = tested on: HT1080 cells; assay: Inhibitory effect of GA (ginkgolic acid) on gene expression; format: cell-based; conditions: 0, 25, 50, 100 μM GA
# Procedure: MENDs of B-2-4 (Example 4), B-2 (Example 1) were prepared according to [Experimental Example 16], [Experimental Example 1] (1), (2). For the preparation, PEG2000-DMG was used as PEG lipid, and MEND solutions corresponding to 0.55 mM of the lipid concentration were prepared.
# HT1080 cells were plated on a 3.5 cm cell culture dish at 4×10^4 cells/2 mL/dish 24 hr before, various MENDs were diluted with DMEM (FBS 10%+, Phenol red free) containing a final concentration of 200 μM of D-luciferin potassium and 0, 25, 50, 100 μM of GA (Calbiochem) to achieve 1.6 μg/2 mL/dish based on the pDNA amount and transfection was performed. According to the Kronos Dio package insert, the luminescence amount was measured for 2 min every 20 min and taken as the luciferase activity (RLU/2 min).
# [2] = tested on: liver; assay: Time course of gene expression activity in the liver (IVIS imaging, total luminescence in abdomen); format: in vivo, ICR mice; conditions: for luminescence / gene expression time course: 40 μg DNA, tail vein
# Excerpt: As a DNA to be mounted on MEND composed of B-2 in this case, […]-Luc(0) described in WO 2011/132713 was used as pDNA completely excluding CpG sequence known to induce immune response and, as a general pDNA having a CpG sequence, a plasmid DNA (pcDNA3.1-Luc(+); CpG sequence total 425) containing a CpG sequence in the back bone of the plasmid DNA and having a CpG sequence even between the initiation codon and the stop codon of the luciferase sequence (marker gene) was used. In gene transfer using cationic MEND and in vivo […]-Luc(0) alone was used. 6, 24, 72 hr later, luciferin (in vivo grade, Promega) corresponding to 3 mg was intraperitoneally administered to the mice, and imaging was performed using IVIS LuminaII (Caliper Life Sciences). As for MEND composed of B-2, imaging was performed about twice a week even after 72 hr. The total luminescence amount in the mouse abdomen was calculated as photon/sec from the obtained images, and used as an index of gene expression activity in the liver.
# [3] = tested on: TNF-α; assay: Cytokine production by MEND administration, TNF-α (ELISA); format: in vivo, ICR mice; conditions: pCpGfree-Luc(0), 40 μg DNA
# Procedure: (§1) MENDs used in [Experimental Example 12] were each administered to 5-week-old male ICR mice from the tail vein in an amount corresponding to 40 μg DNA. 1, 3, 6, 24 hr later, the blood was collected from the heart, and TNF-α, IFN-γ, IL-12p70 were measured using Quantikine ELISA kit (R&D Systems).
# [4] = tested on: liver, lung and spleen; assay: Gene expression activity in liver, lung and spleen after tail vein administration of MEND; format: in vivo, ICR mice; conditions: 40 μg DNA
# Procedure: A solution of pDNA encoding luciferase gene and protamine (maker) solution were diluted with 10 mM HEPES buffer to 0.3 mg/mL and 0.24 mg/mL, respectively. […] A solution (750 μL) of the electrostatic complex composed of gene and protamine was mixed with the lipid solution (750 μL), and the mixture was quickly stirred, diluted with 10 mM HEPES solution (pH 5.3) to 15 mL, and subjected to ultrafiltration using Amicon® Ultra-15 100K device at 3,000 rpm, 15 min, 25° C. The solution after ultrafiltration was diluted with 100 mM HEPES buffer (pH 7.4), and subjected to the ultrafiltration again. The solution was diluted with 10 mM HEPES buffer to 750 μL. […] The mice were euthanized by a cervical spine […] method 6, 24, 48, 72 hr later, and the liver, lung and spleen were isolated and frozen with liquid nitrogen. They were thawed in a Lysis buffer to prepare homogenates. They were centrifuged at 13,000 rpm, 10 min, 4° C., and the supernatant was collected and used as a measurement sample. The sample solution (20 μL) was mixed with a luciferase substrate (50 μL), and the luciferase activity was measured using Luminescenser-PSN (AB2200 ATTO). In addition, the concentration of the protein in the sample was quantified using a BCA protein assay kit, and the gene expression activity was measured as RLU/mg protein.
# [5] = tested on: IL-12p70; assay: Cytokine production by MEND administration, IL-12p70 (ELISA); format: in vivo, ICR mice; conditions: pCpGfree-Luc(0), 40 μg DNA
# Procedure: as §1
# [6] = tested on: HT1080 cells; assay: Endosomal escape efficiency (rhodamine-pDNA, Lysotracker Green, 6 hr); format: cell-based; conditions: 6 hr after transfection
# Procedure: For MEND preparation, the Rhodamine-labeled pDNA prepared by the method of [Experimental Example 1] (4) was used. When MEND encapsulating rhodamine-labeled pDNA was prepared, 50% of the pDNA solution described in [Experimental Example 1] (1) was replaced by rhodamine-labeled pDNA.
# (§2) MENDs having a composition of B-2-4 (Example 4):DOPE:Chol=3:3:4, B-2 (Example 1):SOPE:Chol=5:3:2 were prepared by the method described in [Experimental Example 1] (2). For the preparation, PEG2000-DMG was used as PEG lipid, and MEND solutions corresponding to 0.55 mM of the lipid concentration were prepared.
# HT1080 cells were plated on a glass bottom dish at 5×10^4 cells/2 mL/dish 24 hr before. MEND was diluted with DMEM (FBS 10%+) to achieve pDNA 1.6 μg/2 mL and transfected into cells. After 5.5 hr, Lysotracker Green (Life technologies) was added at 2 μL/dish. 6 hr after the transfection, the cells were washed twice with heparin (20 units/mL, 2 mL), Krebs buffer (1 mL) was added, and the cells were observed by a confocal laser scan microscope.
# Rhodamine-labeled pDNA, endosome/lysosome and nucleus were shown in pseudo colors of red, green and blue, respectively. The endosomal escape efficiency was calculated according to the following formula.
# [7] = tested on: HT1080 cells; assay: Evaluation of endosome amount (Lysotracker Green); format: cell-based; conditions: 6 hr after transfection
# Procedure: as §2
# HT1080 cells were plated on a glass bottom dish at 5×10^4 cells/2 mL/dish 24 hr before. MEND was diluted with DMEM (FBS 10%+) to achieve pDNA 1.6 μg/2 mL and transfected into the cells. The cells without transfection of MEND were used as a control. After 5.5 hr, Lysotracker Green (Life technologies) was added at 2 μL/dish and Hoechst 33342 (Dojindo) was further added at 2 μL/dish 30 min later. 6 hr after the transfection, the cells were washed twice with heparin (20 units/mL, 2 mL), Krebs buffer (1 mL) was added, and the cells were observed by a confocal laser scan microscope.
# Endosome/lysosome and nucleus were shown in pseudo colors of green and blue, respectively. The relative endosome amount was calculated according to the following formula.
Compound,inhibitory effect of GA on gene expression activity [1],time at which luminescence completely disappeared ([2]; pCpGfree-Luc(0)) [days],luminescence / gene expression time course ([2]; pCpGfree-Luc(0)),luminescence / gene expression time course ([2]; pcDNA3.1-Luc(+)),TNF-α blood concentration [3],gene expression activity in the lung and spleen (organ selectivity) [4],time of peak/maximum gene expression activity ([4]; liver) [h],IL-12p70 blood concentration [5],endosomal escape efficiency [6],relative endosome amount [7]
CCCCCCCCCCCCCC(=O)OCCCN(C)CCSSCCN(C)CCCOC(=O)CCCCCCCCCCCCC [Example B-2],higher inhibitory effect on B-2-4 than on B-2,18,"luminescence amount increased from 6 hr to 24 hr later, after which the luminescence amount was retained for the subsequent one week","weak luminescence 6 hr later, after which the gene expression decreased",maintained the normal value at any time point,background-level,48,maintained the normal value at any time point,,
CC1=C(/C=C/C(C)=C/C=C/C(C)=C/C(=O)OCCCN(C)CCSSCCN(C)CCCOC(=O)/C=C(C)/C=C/C=C(C)/C=C/C2=C(C)CCCC2(C)C)C(C)(C)CCC1 [Example B-2-4],higher inhibitory effect on B-2-4 than on B-2,,,,,,,,significantly higher endosomal escape efficiency than B-2,significant decrease in endosome than the untreated group and the B-2 treatment group
